Activity calls are given as the source filed them. The rule behind the calls is not given here.
Assays:
[1] = target: Mucin-1 (Homo sapiens) (UniProt P15941); test: Inhibition of biotinylated MUC1-CD dimerization (unknown origin) assessed as decrease in oligomer formation at 100 uM by streptavidin-HRP based assay relative to control
[2] = tested on: ZR-75-1; test: Growth inhibition of human ZR-75-1 cells assessed as reduction in cell number incubated up to 2 days by MTS assay; assay type: functional, cell-based
[3] = target: Mucin-1 (Homo sapiens) (UniProt P15941); test: Inhibition of soluble unbound MUC1-CD dimerization (unknown origin) by immunoblot analysis
[4] = target: Mucin-1 (Homo sapiens) (UniProt P15941); test: Inhibition of MUC1-CD dimerization (unknown origin) expressed in HEK293 cells assessed as disruption of interaction between Flag-MUC1-CD and GFP-MUC1-CD by coimmunoprecipitation assay; assay type: cell-based
[5] = target: Mucin-1 (Homo sapiens) (UniProt P15941); test: Inhibition of MUC1-CD dimerization in human MCF10A cells assessed as reduction in MUC1-C levels at 50 to 100 uM incubated for 3 days by immunoblot analysis; assay type: cell-based
[6] = tested on: MCF-10A; test: Growth inhibition of immortalized human MCF10A cells assessed as reduction in cell number up to 100 uM incubated for 3 days by MTS assay; assay type: functional, cell-based
[7] = tested on: MCF-10A; test: Induction of apoptosis in immortalized human MCF10A cells assessed as caspase-9 cleavage at 75 uM incubated for 3 days by immunoblot analysis; assay type: functional, cell-based
[8] = tested on: MCF-10A; test: Induction of cell membrane integrity loss in immortalized human MCF10A cells at 75 uM incubated for 3 days by propidium iodide staining based flow cytometry; assay type: functional
[9] = tested on: MCF7; test: Reduction of MUC1 mRNA levels in human MCF7 cells at 75 uM incubated for 3 days by qRT-PCR analysis; assay type: functional, cell-based
[10] = target: Mucin-1 (Homo sapiens) (UniProt P15941); test: Inhibition of MUC1 nuclear import in human MCF7 cells assessed as decrease in nuclear MUC1-C levels at 75 uM incubated for 3 days by immunoblot analysis; assay type: cell-based
[11] = target: Mucin-1 (Homo sapiens) (UniProt P15941); test: Inhibition of MUC1 in human MCF7 cells assessed as decrease in MUC1 protein level in whole cell lysates at 75 uM incubated for 3 days by immunoblot analysis; assay type: subcellular; conditions: Lysate
[12] = tested on: MCF7; test: Induction of cell membrane integrity loss in human MCF7 cells assessed as PI uptake level at 75 uM incubated for 3 days by propidium iodide staining based flow cytometry (reference value: 22%); assay type: functional
[13] = tested on: MCF-10A; test: Induction of cell membrane integrity loss in immortalized human MCF10A cells assessed as PI uptake level at 50 uM incubated for 3 days by propidium iodide staining based flow cytometry (reference value: 23%); assay type: functional
[14] = tested on: MCF-10A; test: Induction of cell membrane integrity loss in immortalized human MCF10A cells assessed as PI uptake level at 75 uM incubated for 3 days by propidium iodide staining based flow cytometry (reference value: 23%); assay type: functional

Mucin-1 (Homo sapiens), sequence (P15941 24-1097 limits assumed): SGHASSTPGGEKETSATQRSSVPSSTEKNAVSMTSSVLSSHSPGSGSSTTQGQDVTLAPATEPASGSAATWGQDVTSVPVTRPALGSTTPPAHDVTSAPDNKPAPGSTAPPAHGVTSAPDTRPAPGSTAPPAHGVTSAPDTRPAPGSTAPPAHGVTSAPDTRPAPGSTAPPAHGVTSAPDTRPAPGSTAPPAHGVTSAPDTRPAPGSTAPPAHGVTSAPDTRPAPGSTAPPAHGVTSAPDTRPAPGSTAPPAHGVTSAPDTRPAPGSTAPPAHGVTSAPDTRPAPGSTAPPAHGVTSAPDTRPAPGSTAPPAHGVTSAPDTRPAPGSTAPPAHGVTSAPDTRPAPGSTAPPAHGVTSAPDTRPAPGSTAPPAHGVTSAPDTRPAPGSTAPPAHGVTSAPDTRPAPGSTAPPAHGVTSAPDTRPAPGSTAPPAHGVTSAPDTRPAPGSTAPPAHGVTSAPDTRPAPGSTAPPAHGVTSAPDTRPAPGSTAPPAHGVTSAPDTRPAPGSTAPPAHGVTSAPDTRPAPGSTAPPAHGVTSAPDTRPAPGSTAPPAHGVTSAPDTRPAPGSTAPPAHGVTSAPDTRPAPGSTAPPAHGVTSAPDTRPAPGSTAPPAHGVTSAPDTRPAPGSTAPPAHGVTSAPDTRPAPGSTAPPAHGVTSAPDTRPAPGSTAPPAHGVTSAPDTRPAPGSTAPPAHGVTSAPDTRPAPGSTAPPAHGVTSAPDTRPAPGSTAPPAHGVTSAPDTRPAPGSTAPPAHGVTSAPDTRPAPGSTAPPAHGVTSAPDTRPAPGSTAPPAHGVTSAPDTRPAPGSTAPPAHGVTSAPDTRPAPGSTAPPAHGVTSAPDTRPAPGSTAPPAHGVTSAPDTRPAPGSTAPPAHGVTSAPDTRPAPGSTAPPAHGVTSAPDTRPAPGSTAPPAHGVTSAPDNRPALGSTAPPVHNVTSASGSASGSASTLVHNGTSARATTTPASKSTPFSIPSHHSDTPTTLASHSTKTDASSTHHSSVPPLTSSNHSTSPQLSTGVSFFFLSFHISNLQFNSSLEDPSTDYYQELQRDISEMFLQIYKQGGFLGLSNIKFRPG
Mucin-1 (Homo sapiens), sequence (P15941 1098-1255 limits assumed): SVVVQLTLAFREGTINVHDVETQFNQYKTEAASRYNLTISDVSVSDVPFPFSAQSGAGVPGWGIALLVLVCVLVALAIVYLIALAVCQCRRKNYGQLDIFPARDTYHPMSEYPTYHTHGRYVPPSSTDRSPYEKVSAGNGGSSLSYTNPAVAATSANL

CCCc1cc2c(=O)c(-c3ccc4c(c3)OCCCO4)c(C)oc2cc1OC
inhibition [1]: > 50%

O=c1c(O)c(-c2ccc(O)cc2)oc2cc(O)cc(O)c12
growth inhibition (GI) [2]: Active

CCOC(=O)c1oc2cc(OCc3ccc(C(=O)OC)o3)ccc2c(=O)c1-c1ccc(C(=O)OC)o1
inhibition [1]: > 50%

O=c1cc(-c2ccccc2)oc2cc(O)c(O)c(O)c12 [BAICALEIN]
inhibition [1]: inactive
inhibition [3]: inactive
inhibition [4]: inactive
inhibition [5]: inactive
growth inhibition (GI) [6]: inactive
Activity [7]: inactive
Activity [8]: inactive
Activity [9]: inactive
inhibition [10]: inactive
inhibition [11]: inactive
Activity [12]: 19%
Activity [13]: 27%
Activity [14]: 28%

O=c1cc(C(F)(F)F)c2ccc(OCc3ccccc3)cc2o1
inhibition [1]: > 50%

COc1ccc2c(=O)c(-c3cscn3)c(C(F)(F)F)oc2c1
inhibition [1]: > 50%

From ChEMBL document CHEMBL4420073, “Small molecule inhibitors of MUC1 and methods of identifying the same” (2015)
